pIC50: −log10 of the molar value. Like-named read-outs stand apart in the source and are kept apart here. Values belong to the compound of their own block, whether it stands above or below them.
Experiments:
Format in all cases: cell-based
[1] = target: BaF3 (EGFR/A763insFQEA) (Homo sapiens, UniProt P00533, INS763FQEA, cells depend on it); experiment: Test 14: EGFR exon 20 inserted A763insFQEA cell proliferation test; settings: 72 hours, Cell Titer-Glo, read-out: Test 14 IC50
Method: Test 14: EGFR Exon 20 Inserted A763insFQEA Cell Proliferation Test
(§1) The number of viable cells in the culture was measured according to the protocol described in Promega's Cell Titer-Glo Luminescent cell Viability Assay (Promega catalog number #G7570). 90 μl of cells (3,000 cells/well) were cultured in growth medium in a Corning black transparent bottom 96-well plate, and cultured in a 5% CO2 humidified incubator at 37° C. overnight. The compound serially diluted in 100% DMSO was added to the cells using a pipette, and the cells were incubated for another 72 hours. 100 μl of the mixed Cell Titer-Glo reagent was added to the cells in the 96-well culture plate to lyse the cells and mix gently. Subsequently, the […] was detected on the Envision microplate detector to obtain the data of each compound. Finally, the data was input into a suitable software package (such as Prism) for curve fitting analysis.

[2] = target: T1, BaF3 (EGFR/D770insSVD) (Homo sapiens, UniProt P00533, DUP768-770, cells depend on it); experiment: Test 13: EGFR exon 20 inserted D770insSVD cell proliferation test; settings: BaF3 (EGFR/D770insSVD), 72 hours, Cell Titer-Glo, read-out: Test 13 IC50
T1 construct: Test 13 IC50 (nM); other: BaF3 (EGFR/D770insSVD), 72 hours, Cell Titer-Glo
How it was run: (§2)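 BaF3 cells expressing EGFR D770insSVD, 3,000 cells/well, seeded overnight at 37° C, 5% CO2, then exposed to serially diluted compound for 72 h. Viable cells read by CellTiter-Glo luminescence; values from curve fitting.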

[3] = target: BaF3 (EGFR/D770insNPG) (Homo sapiens, UniProt P00533, cells depend on it, form not given); experiment: Test 17: EGFR exon 20 inserted D770insNPG cell proliferation test; settings: 72 hours, Cell Titer-Glo, read-out: Test 17 IC50
Method: Test 17: EGFR Exon 20 Inserted D770insNPG Cell Proliferation Test
as §1

[4] = target: BaF3 (EGFR/V769insASV) (Homo sapiens, UniProt P00533, DUP767-769, cells depend on it); experiment: Test 15: EGFR exon 20 inserted V769insASV cell proliferation test; settings: 72 hours, Cell Titer-Glo, read-out: Test 15 IC50
Method: Test 15: EGFR Exon 20 Inserted V769insASV Cell Proliferation Test
as §1, with “(3000” for “(3,000”

[5] = target: T2, BaF3 (EGFR/N771insH) (Homo sapiens, UniProt P00533, cells depend on it, form not given); experiment: Test 16: EGFR exon 20 inserted N771insH cell proliferation test; settings: BaF3 (EGFR/N771insH), 72 hours, Cell Titer-Glo, read-out: Test 16 IC50
T2 construct: Test 16 IC50 (nM); other: BaF3 (EGFR/N771insH), 72 hours, Cell Titer-Glo

[6] = target: BaF3 (HER2-P780insGSP) (Homo sapiens, UniProt P04626, DUP778-780, cells depend on it); experiment: Test 10: BaF3 (HER2-P780insGSP) cell proliferation test; settings: 72 hours, Cell Titer-Glo, read-out: Test 10 - IC50
Method: Test 10: BaF3 (HER2-P780insGSP) Cell Proliferation Test
BaF3 (HER2-P780insGSP) was cultured in RPMI1640 medium containing 10% fetal bovine serum and 2 mM glutamine. The cells were grown at 37° C. in a humidified incubator with 5% CO2.
as §1

[7] = target: BaF3 (HER2-G776insVC) (Homo sapiens, UniProt P04626, cells depend on it, form not given); experiment: Test 11: BaF3 (HER2-G776insVC) cell proliferation test; settings: 72 hours, Cell Titer-Glo, read-out: Test 11 - IC50
Method: Test 11: BaF3 (HER2-G776insVC) Cell Proliferation Test
(§3) The engineered cell line BaF3 (HER2-G776insVC) was constructed by the inventor himself (for the method of cell line construction, see Jingrui Jiang et al., Cancer Res. 2005 Oct. 1; 65 (19): 8964-74; Jacqulyne P. Robichaux et al., Nat Med. 2018 May; 24 (5): 638-646). BaF3 (HER2-G776insVC) was cultured in RPMI1640 medium containing 10% fetal bovine serum and 2 mM glutamine. The cells were grown at 37° C. in a humidified incubator with 5% CO2.
as §1

[8] = target: BaF3 (HER2/G776insVC) (Homo sapiens, UniProt P04626, cells depend on it, form not given); experiment: Test 23: HER2 exon 20 inserted G776insVC cell proliferation test; settings: read-out: test 23 IC50, 72 hours, Cell Titer-Glo
Method: Test 23: HER2 Exon 20 Inserted G776insVC Cell Proliferation Test
as §1

[9] = target: T3, BaF3 (HER2/A775insYVMA) (Homo sapiens, UniProt P04626, cells depend on it, form not given); experiment: Test 21: HER2 exon 20 inserted A775insYVMA cell proliferation test; settings: read-out: test 21 IC50; BaF3 (HER2/A775insYVMA), 72 hours, Cell Titer-Glo
T3 construct: other: BaF3 (HER2/A775insYVMA), 72 hours, Cell Titer-Glo
Method: (§4) Test 21: HER2 Exon 20 Inserted A775insYVMA Cell Proliferation Test
as §1

[10] = target: BaF3 (HER2-A775insYVMA) (Homo sapiens, UniProt P04626, DUP772-775, cells depend on it); experiment: Test 9: BaF3 (HER2-A775insYVMA) cell proliferation test; settings: 72 hours, Cell Titer-Glo, read-out: Test 9 - IC50
Method: Test 9: BaF3 (HER2-A775insYVMA) Cell Proliferation Test
BaF3 (HER2-A775insYVMA) was cultured in RPMI1640 medium containing 10% fetal bovine serum and 2 mM glutamine. The cells were grown at 37° C. in a humidified incubator with 5% CO2.
as §1

[11] = test system: NCI-H1975 (EGFR L858R/T790M double mutant); experiment: Test 1: EGFR L858R/T790M (EGFR double mutant) cell proliferation test; settings: Homo sapiens; NCI-H1975 cells, 72 hours, Cell Titer-Glo
[12] = target: BaF3 (HER2/P780insGSP) (Homo sapiens, UniProt P04626, cells depend on it, form not given); experiment: Test 22: HER2 exon 20 inserted P780insGSP cell proliferation test; settings: 72 hours, Cell Titer-Glo, read-out: test 22 IC50
Method: Test 22: HER2 Exon 20 Inserted P780insGSP Cell Proliferation Test
as §3, with “(HER2/P780insGSP)” for “(HER2-G776insVC)”, “RPMI 1640” for “RPMI1640”, “glutamine, and the” for “glutamine. The”
as §1

[13] = target: T4, BaF3 (HER2/A775insYVMA) (Homo sapiens, UniProt P04626, cells depend on it, form not given); experiment: Test 21: HER2 exon 20 inserted A775insYVMA cell proliferation test; settings: tests 21-23, in words
T4 construct: other: tests 21-23, in words; other: HER2 exon 20 insertion mutation cells, tests 21-23
Method: as §4, §1

[14] = target: T5, BaF3 (EGFR/D770insSVD) (Homo sapiens, UniProt P00533, cells depend on it, form not given); experiment: Test 13: EGFR exon 20 inserted D770insSVD cell proliferation test; settings: A763insFQEA, V769insASV, D770insSVD (tests 13-15), in words
T5 construct: other: A763insFQEA, V769ins
How it was run: as §2

[15] = target: T6, BaF3 (EGFR/S768I) (Homo sapiens, UniProt P00533, cells depend on it, form not given); experiment: Test 19: EGFR/S768I mutant cell line proliferation test; settings: EGFR S768I and EGFR L861Q (tests 19-20), in words
T6 construct: other: EGFR S768I and EGFR L8
Method: Test 19: EGFR/S768I Mutant Cell Line Proliferation Test
as §1

- GI50 [1]: 13 nM
- GI50 [2]: 45 nM
- GI50 [3]: 4.58 nM
- GI50 [4]: 28.4 nM
- GI50 [5]: 9.43 nM
Compound: C=CC(=O)Nc1cc(Nc2nccc(-c3cn(C)c4ccccc34)n2)c(OCC(F)(F)F)nc1N(C)CCN(C)C.CS(=O)(=O)O [Compound 31, N-(2-((2-(dimethylamino)ethyl(methyl)amine)-5-((4-(1-methyl-1H-indol-3-yl)pyrimidine-2-yl)amino)-6-(2,2,2-trifluoroethoxy)pyridin-3-yl)acrylamide methanesulfonate]

Compound: C=CC(=O)Nc1cc(Nc2nccc(-c3cn(C)c4ccccc34)n2)c(OC)cc1N(C)CCN(C)C [Osimertinib (AZD9291), Osimertinib, reference compound]
- GI50 [6]: 32.2 nM
- GI50 [7]: 21.5 nM
- GI50 [8]: 61.2 nM
- GI50 [9]: 32.2 nM
- GI50 [10]: 61.2 nM
- GI50 [12]: 21.5 nM

- GI50 ([1]; hydrochloride): 15.7 nM
- GI50 ([2]; hydrochloride): 54.5 nM
- GI50 ([3]; hydrochloride): 4.73 nM
- GI50 ([4]; hydrochloride): 26.9 nM
- GI50 ([5]; hydrochloride): 10.2 nM
Compound: C=CC(=O)Nc1cc(Nc2nccc(-c3cn(C)c4ccccc34)n2)c(OCC(F)(F)F)nc1N(C)CCN(C)C.Cl [Compound 32, N-(2-((2-(dimethylamino)ethyl(methyl)amine)-5-((4-(1-methyl-1H-indol-3-yl)pyrimidine-2-yl)amine)-6-(2,2,2-trifluoroethoxy)pyridin-3-yl)acrylamide hydrochloride]

Compound: (R)—N-(5-((4-(1H-pyrrole[3,2-c]pyridin-1-yl)-1,3,5-triazin-2-yl)amino)-2-(2-((dimethylamino)methyl)azetidine-1-yl)-4-methoxyphenyl)acrylamide [Example 1]
- cell activity compared with Osimertinib (AZD9291) against HER2 exon 20 insertion mutation [13]: superior cell activity over Osimertinib (AZD9291)
- cell activity compared with Osimertinib (AZD9291) against EGFR exon 20 insertion mutations [14]: significant superior cell activity over Osimertinib (AZD9291)

- GI50 [1]: 15 nM
- GI50 [2]: 49.5 nM
- GI50 [3]: 5.87 nM
- GI50 [4]: 25.7 nM
- GI50 [5]: 10.1 nM
Compound: C=CC(=O)Nc1cc(Nc2nccc(-c3cn(C)c4ccccc34)n2)c(OCC(F)(F)F)nc1N(C)CCN(C)C [Compound 33]
- activity compared with Osimertinib (AZD9291) against EGFR S768I and EGFR L861Q mutations [15]: superior activity over Osimertinib (AZD9291)

From US12258344B2, “Azaaromatic amide derivatives for the treatment of cancer” (SHENZHEN FORWARD PHARMACEUTICALS CO., LTD., priority 2019, dated 2025)
